Measured values from ChEMBL document CHEMBL1201862, “PubChem BioAssay data set” (2004).
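Each compound was tested at five concentrations against cells in 96-well plates for 48 hours. GI50: concentration for 50% inhibition of growth.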 Calls of active or inactive are those of the source. Rule as the data show it: active = GI50 up to about 1.1 µM and inactive = higher.

Tests used:
Assay in all cases: NCI anticancer screen, dose series, 48 h
786-0 = system: 786-0
K562 = system: K562
SF-539 = system: SF-539
Malme-3M = system: Malme-3M
COLO 205 = system: COLO 205
DU-145 = system: DU-145
A498 = system: A498
NCI/ADR-RES = system: NCI/ADR-RES
UACC-62 = system: UACC-62
EKVX = system: EKVX
NCI-H460 = system: NCI-H460
RXF 393 = system: RXF 393
CCRF-CEM = system: CCRF-CEM
MOLT-4 = system: MOLT-4
CAKI-1 = system: CAKI-1
SR = system: SR

Measured: GI50

C[P+](c1ccccc1)(c1ccc(Cl)cc1)c1ccc(Cl)cc1
inactive: 786-0 31.3 µM | K562 11.2 µM | SF-539 19.8 µM | Malme-3M 4.19 µM | COLO 205 10.4 µM | DU-145 18.4 µM | A498 27.5 µM | NCI/ADR-RES > 100 µM | UACC-62 10.1 µM | EKVX 21.3 µM | NCI-H460 24.2 µM | RXF 393 46.2 µM

CCCCCCCCC[C@@H]1C[C@@H]2CCC3C(C(=O)OC)=C(C)N=C(N1)N32 (some centres undefined)
inactive: 786-0 4.22 µM | K562 5.25 µM | SF-539 3.29 µM | Malme-3M 10.5 µM | CCRF-CEM > 100 µM | COLO 205 3.37 µM | DU-145 6.41 µM | MOLT-4 8.22 µM | NCI/ADR-RES 18.7 µM | CAKI-1 17.3 µM | UACC-62 4.52 µM | EKVX 10.5 µM | NCI-H460 3.65 µM | RXF 393 2.64 µM | SR 3.91 µM

CC(=O)OC[C@H]1O[C@@H](O[C@H]2[C@H](OC(C)=O)C=CO[C@@H]2COC(C)=O)C(OC(C)=O)[C@H]2OC(C)(C)O[C@H]21 (some centres undefined)
inactive: 786-0 > 100 µM | K562 > 100 µM | SF-539 > 100 µM | Malme-3M > 100 µM | CCRF-CEM 62.8 µM | COLO 205 > 100 µM | MOLT-4 > 100 µM | NCI/ADR-RES > 100 µM | CAKI-1 > 100 µM | UACC-62 > 100 µM | EKVX > 100 µM | NCI-H460 > 100 µM | RXF 393 2.43 µM | SR 43.3 µM

Cc1c(OCc2cccc3ccccc23)ccc2c(=O)cc(SCCN3CCOCC3)oc12
inactive: 786-0 > 100 µM | K562 > 100 µM | SF-539 > 100 µM | CCRF-CEM > 100 µM | COLO 205 > 100 µM | DU-145 > 100 µM | MOLT-4 > 100 µM | A498 > 100 µM | NCI/ADR-RES > 100 µM | CAKI-1 > 100 µM | UACC-62 > 100 µM | EKVX > 100 µM | NCI-H460 6.53 µM | RXF 393 > 100 µM | SR > 100 µM

CO[C@@]12C[C@@H](CNC(=O)c3cc(Br)c[nH]3)O[C@@H]1NC(=O)N2
inactive: 786-0 > 100 µM | SF-539 > 100 µM | Malme-3M > 100 µM | CCRF-CEM > 100 µM | COLO 205 > 100 µM | DU-145 > 100 µM | A498 > 100 µM | NCI/ADR-RES > 100 µM | CAKI-1 > 100 µM | UACC-62 > 100 µM | EKVX > 100 µM | NCI-H460 > 100 µM | RXF 393 > 100 µM
